Reference: patent US8541449B2, “Substituted isoquinolines and isoquinolinones as Rho kinase inhibitors” (Sanofi, priority 2008, dated 2013)
One block for each molecule: values may come before it.

Columns and labels:
Assay type in all cases: biochemical
[1] = target: T1, recombinant human PKG1-beta (Homo sapiens, UniProt Q13976); test: Determination of Protein Kinase G inhibition (Caliper peptide phosphorylation assay); settings: recombinant human PKG1-beta versus ROCK II
T1 construct: Active recombinant human PKG1-beta (full-length, with N-terminal His-tag); His-tag (N); purchased Millipore GmbH, Schwalbach, Germany
T1 sequence (Q13976 1-686 isoform Q13976-2): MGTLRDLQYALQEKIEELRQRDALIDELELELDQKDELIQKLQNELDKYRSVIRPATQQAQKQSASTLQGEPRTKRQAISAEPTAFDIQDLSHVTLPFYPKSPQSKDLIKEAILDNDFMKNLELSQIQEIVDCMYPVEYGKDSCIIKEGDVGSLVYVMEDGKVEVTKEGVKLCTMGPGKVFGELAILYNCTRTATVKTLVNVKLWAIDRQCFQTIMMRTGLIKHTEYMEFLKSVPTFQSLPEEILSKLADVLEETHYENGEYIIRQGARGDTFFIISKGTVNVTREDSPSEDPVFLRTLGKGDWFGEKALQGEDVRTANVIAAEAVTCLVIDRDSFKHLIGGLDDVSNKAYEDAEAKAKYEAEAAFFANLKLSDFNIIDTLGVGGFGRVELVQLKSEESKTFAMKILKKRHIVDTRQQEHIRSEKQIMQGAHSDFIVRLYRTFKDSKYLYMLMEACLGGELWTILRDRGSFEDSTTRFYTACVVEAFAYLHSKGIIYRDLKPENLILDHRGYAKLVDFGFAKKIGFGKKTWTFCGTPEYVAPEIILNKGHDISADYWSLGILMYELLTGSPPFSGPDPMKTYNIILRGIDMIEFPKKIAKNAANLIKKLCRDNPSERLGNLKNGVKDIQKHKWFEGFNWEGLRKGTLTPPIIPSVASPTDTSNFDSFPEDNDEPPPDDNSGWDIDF
Summary of the method: (§1)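 Full-length His-tagged PKG1-beta (150 ng/ml working) or His-tagged PKA residues 1-351 (30 ng/ml working) was mixed with compound in pH 7.4 Tris/MgCl2/DTT buffer. Fluorescein-peptide substrate and ATP (3 μM and 120 μM working) were then added for 60 min at 32 °C before an EDTA stop. Phosphopeptide was separated electrophoretically on a Caliper instrument to derive IC50.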

recombinant human PKA = target: T2, recombinant human PKA (Homo sapiens, UniProt P17612); test: Determination of Protein Kinase A inhibition (Caliper peptide phosphorylation assay); settings: recombinant human PKA versus ROCK II
T2 construct: Active recombinant human PKA (residues 1-351, N-terminal His-tag); His-tag (N); purchased Invitrogen, Karlsruhe, Germany
Summary of the method: as §1

[2] = target: T3, human recombinant ROCK II (Homo sapiens, UniProt O75116); test: Determination of Rho kinase inhibition (Caliper peptide phosphorylation assay); settings: 60 min at 32° C., negative decadal logarithm of the IC50
T3 construct: N-terminal His6-tagged recombinant human ROCK-II residues 11-552; His6 (N); purchased Millipore GmbH, Schwalbach, Germany
T3 sequence (O75116 11-552): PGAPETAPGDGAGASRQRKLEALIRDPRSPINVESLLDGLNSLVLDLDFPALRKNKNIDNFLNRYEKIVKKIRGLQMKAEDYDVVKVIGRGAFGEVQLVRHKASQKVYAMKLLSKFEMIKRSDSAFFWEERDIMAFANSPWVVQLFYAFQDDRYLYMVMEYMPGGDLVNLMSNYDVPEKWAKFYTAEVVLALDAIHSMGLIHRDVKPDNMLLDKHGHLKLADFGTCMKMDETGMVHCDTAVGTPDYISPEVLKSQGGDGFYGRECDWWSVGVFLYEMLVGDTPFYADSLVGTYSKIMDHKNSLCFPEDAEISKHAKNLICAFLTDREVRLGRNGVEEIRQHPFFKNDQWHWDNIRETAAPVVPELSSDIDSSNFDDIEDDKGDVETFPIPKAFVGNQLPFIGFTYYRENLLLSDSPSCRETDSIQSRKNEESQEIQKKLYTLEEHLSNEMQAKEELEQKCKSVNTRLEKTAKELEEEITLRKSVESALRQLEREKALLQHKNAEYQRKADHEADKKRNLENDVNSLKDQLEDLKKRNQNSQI
Summary of the method: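 His6-tagged human ROCK II (residues 11-552) phosphorylated a fluorescein-labelled peptide for 60 min at 32° C in Tris-HCl pH 7.4 with MgCl2, DTT and BSA, using 3 μM peptide and 120 μM ATP as diluted stocks. EDTA-stopped; phosphopeptide separated and detected by Caliper mobility shift; IC50 determined.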

Structure (SMILES): CCC(N)[C@@]1(c2ccccc2)C[C@@H]2C[C@H]1CC2Oc1cc2cc[nH]c(=O)c2cc1Cl (stereo partly drawn) [Example 100, 6-[(1S,4S,5S)-5-(1-Amino-propyl)-5-phenyl-bicyclo[2.2.1]hept-2-yloxy]-7-chloro-2H-isoquinolin-1-one]
Selectivity against PKG [1]: >1000
Selectivity against PKA (recombinant human PKA): >1000
pIC50 [2]: +++++++ (8.0≦pIC50)

Structure (SMILES): CCC(N)[C@]1(c2ccccc2)CC[C@@H](Oc2cc3cc[nH]c(=O)c3cc2Cl)CC1 (stereo partly drawn) [Example 32]
Selectivity against PKG [1]: >300
Selectivity against PKA (recombinant human PKA): >1000
pIC50 [2]: ++++++ (7.0≦pIC50<8.0)

Structure (SMILES): CCC(N)[C@]1(c2ccc(F)cc2)CC[C@@H](Oc2cc3cc[nH]c(=O)c3cc2Cl)CC1 (stereo partly drawn) [Example 31, trans-6-[4-(1-amino-propyl)-4-(4-fluoro-phenyl)-cyclohexyloxy]-7-chloro-2H-iso quinolin-1-one]
Selectivity against PKG [1]: >100
Selectivity against PKA (recombinant human PKA): >300
pIC50 [2]: ++++++ (7.0≦pIC50<8.0)

Structure (SMILES): NC(c1ccccc1)C1CCC(Oc2cc3cc[nH]c(=O)c3cc2Cl)CC1 (stereo not drawn) [Example 128, 6-[4-(amino-phenyl-methyl)-cyclohexyloxy]-7-chloro-2H-isoquinolin-1-one]
Selectivity against PKG [1]: >10
Selectivity against PKA (recombinant human PKA): >10
pIC50 [2]: +++++ (6.0≦pIC50<7.0)

Structure (SMILES): CC(C)(N)[C@]1(c2ccc(F)cc2)CC[C@@H](Oc2cc3cc[nH]c(=O)c3cc2Cl)CC1 [Example 22, trans-6-[4-(1-Amino-1-methyl-ethyl)-4-(4-fluoro-phenyl)-cyclohexyloxy]-7-chloro-2H-iso quinolin-1-one]
Selectivity against PKG [1]: >100
Selectivity against PKA (recombinant human PKA): >300
pIC50 [2]: ++++++ (7.0≦pIC50<8.0)

Structure (SMILES): CC(N)(c1ccccc1)C1CCC(Oc2cc3cc[nH]c(=O)c3cc2Cl)CC1 (single isomer, unassigned) [Example 123, 6-{4-[1-Amino-1-phenyl-ethyl]-cyclohexyloxy}-7-chloro-2H-isoquinolin-1-one]
Selectivity against PKG [1]: >10
Selectivity against PKA (recombinant human PKA): >100
IC50 [2]: 10 to 100 nM

Structure (SMILES): CC(N)(c1ccc(F)cc1)C1CCC(Oc2cc3cc[nH]c(=O)c3cc2Cl)CC1 (single isomer, unassigned) [Example 116, 6-{4-[1-Amino-1-(4-fluoro-phenyl)-ethyl]-cyclohexyloxy}-7-chloro-2H-isoquinolin-1-one]
Selectivity against PKG [1]: >10
Selectivity against PKA (recombinant human PKA): >100
IC50 [2]: 10 to 100 nM

Structure (SMILES): CCC(N)[C@]1(c2ccccc2)CC[C@H](Oc2cc3cc[nH]c(=O)c3cc2Cl)CC1 (stereo partly drawn) [Example 3, cis-6-{[4-(1-aminopropyl)-4-phenylcyclohexyl]oxy}-7-chloro-2H-isoquinolin-1-one]
Selectivity against PKG [1]: >300
Selectivity against PKA (recombinant human PKA): >1000
pIC50 [2]: +++++++ (8.0≦pIC50)

Structure (SMILES): CC(C)CC(N)[C@]1(c2ccccc2)CC[C@@H](Oc2cc3cc[nH]c(=O)c3cc2Cl)CC1 (stereo partly drawn) [Example 20, trans-6-[4-(1-Amino-3-methyl-butyl)-4-phenyl-cyclohexyloxy]-7-chloro-2H-iso quinolin-1-one]
Selectivity against PKG [1]: >100
Selectivity against PKA (recombinant human PKA): >100
pIC50 [2]: ++++++ (7.0≦pIC50<8.0)

Second part, the molecule after the results:

Selectivity against PKG [1]: >1000
Selectivity against PKA (recombinant human PKA): >1000
pIC50 [2]: +++++++ (8.0≦pIC50)
Structure (SMILES): NC(CF)[C@]1(c2ccc(F)cc2)CC[C@H](Oc2cc3cc[nH]c(=O)c3cc2Cl)CC1 (stereo partly drawn) [Example 114, cis-6-[4-(1-Amino-2-fluoro-ethyl)-4-(4-fluoro-phenyl)-cyclohexyloxy]-7-chloro-2H-isoquinolin-1-one]

Selectivity against PKG [1]: >300
Selectivity against PKA (recombinant human PKA): >300
IC50 [2]: 10 to 100 nM
Structure (SMILES): NC(c1ccccc1)C1(c2ccccc2)CCC(Oc2cc3cc[nH]c(=O)c3cc2Cl)CC1 (single isomer, unassigned) [Example 42]

Selectivity against PKG [1]: >10
Selectivity against PKA (recombinant human PKA): >10
pIC50 [2]: +++++ (6.0≦pIC50<7.0)
Structure (SMILES): CCC(N)C1(c2ccc(F)cc2)CC(Oc2cc3cc[nH]c(=O)c3cc2Cl)C1 (stereo not drawn) [Example 125, 6-[3-(1-Amino-propyl)-3-(4-fluoro-phenyl)-cyclobutyloxy]-7-chloro-2H-isoquinolin-1-one]

Selectivity against PKG [1]: >300
Selectivity against PKA (recombinant human PKA): >1000
pIC50 [2]: +++++++ (8.0≦pIC50)
Structure (SMILES): CCC(N)[C@]1(c2ccccc2Br)CC[C@H](Oc2cc3cc[nH]c(=O)c3cc2Cl)CC1 (stereo partly drawn) [Example 7, cis-6-[4-(1-Amino-propyl)-4-(2-bromo-phenyl)-cyclohexyloxy]-7-chloro-2H-isoquinolin-1-one]

Selectivity against PKG [1]: >100
Selectivity against PKA (recombinant human PKA): >1000
pIC50 [2]: +++++++ (8.0≦pIC50)
Structure (SMILES): CC(C)(N)[C@]1(c2ccccc2)CC[C@H](Oc2cc3cc[nH]c(=O)c3cc2Cl)CC1 [Example 25, cis-6-[4-(1-Amino-1-methyl-ethyl)-4-phenyl-cyclo-hexyloxy]-7-chloro-2H-iso quinolin-1-one]

Selectivity against PKG [1]: >10
Selectivity against PKA (recombinant human PKA): >100
pIC50 [2]: +++++ (6.0≦pIC50<7.0)
Structure (SMILES): CCC(N)[C@]1(c2cccc(C(F)(F)F)c2)CC[C@H](Oc2cc3cc[nH]c(=O)c3cc2Cl)CC1 (stereo partly drawn) [Example 83, cis-6-[4-(1-Amino-propyl)-4-(3-trifluoromethyl-phenyl)-cyclohexyloxy]-7-chloro-2H-isoquinolin-1-one]

Selectivity against PKG [1]: >100
Selectivity against PKA (recombinant human PKA): >1000
pIC50 [2]: +++++++ (8.0≦pIC50)
Structure (SMILES): CCCC(N)[C@]1(c2ccccc2)CC[C@H](Oc2cc3cc[nH]c(=O)c3cc2Cl)CC1 (stereo partly drawn) [Example 4, cis-6-[4-(1-Amino-butyl)-4-phenyl-cyclohexyloxy]-7-chloro-2H-isoquinolin-1-one]

Selectivity against PKG [1]: >10
Selectivity against PKA (recombinant human PKA): >10
pIC50 [2]: +++++ (6.0≦pIC50<7.0)
Structure (SMILES): CCC(N)[C@]1(c2cc(F)cc(F)c2)CC[C@H](Oc2cc3cc[nH]c(=O)c3cc2F)CC1 (stereo partly drawn) [Example 66]

Selectivity against PKG [1]: >1000
Selectivity against PKA (recombinant human PKA): >1000
pIC50 [2]: +++++++ (8.0≦pIC50)
Structure (SMILES): CCC(N)[C@]1(c2ccc(OC(F)(F)F)cc2)CC[C@H](Oc2cc3cc[nH]c(=O)c3cc2Cl)CC1 (stereo partly drawn) [Example 70, cis-6-[4-(1-Amino-propyl)-4-(4-trifluoro-methoxy-phenyl)-cyclohexyloxy]-7-chloro-2H-isoquinolin-1-one]

Selectivity against PKG [1]: >1
Selectivity against PKA (recombinant human PKA): >10
pIC50 [2]: +++++ (6.0≦pIC50<7.0)
Structure (SMILES): CCC(N)[C@]1(c2ccccc2OC(F)(F)F)CC[C@H](Oc2cc3cc[nH]c(=O)c3cc2Cl)CC1 (stereo partly drawn) [Example 61, cis-6-[4-(1-Amino-propyl)-4-(2-trifluoromethoxy-phenyl)-cyclohexyloxy]-7-chloro-2H-iso quinolin-1-one]
